Assay results published in patent publication US20140378513A1, “USE OF FUNGICIDES IN LIQUID SYSTEMS” (priority 2011, published 2014).

Legend:
[1] = test system: Paraphysoderma sedebokerensis; experiment: Haematococcus pluvialis outdoor pond, PCR monitoring and treatment; settings: 1 ppm
Experimental: A 200,000 liter outdoor pond is inoculated with Haematococcus pluvialis at an initial OD (750 nm) of ˜0.15 (pond P08). Growth of the microalgae is monitored daily by measuring the ash free dry weight of the culture. PCR monitoring is performed daily to detect the presence of the chytrid fungus Paraphysoderma sedebokerensis or close relatives using […] (SEQ ID NO. 38) and […] (SEQ ID NO. 39) as primers.
(§1) Initially, the Ct value for the pest is above the threshold of Ct=30. The measured Ct observed for P. sedebokerensis stays below Ct=30 and indicates a need for crop protective action. Once detected with a Ct<30, chlorothalonil is added at a concentration of 1 ppm. Daily monitoring is continued and the Ct observed for P. sedebokerensis increases above the Ct=30 threshold and remains above the threshold.

[2] = test system: Pest in infected Scenedesmus dimorphus culture; experiment: Fungicide efficacy on pest control in infected microalgae culture; assay type: cell-based
Source text: Failure to treat an infected culture results in the collapse and loss of the microalgae culture. […] Test fungicides are graded on a rating scale of 0 to 3 where a score of 0 represents an efficacy of between 0 and 25%, a score of 1 represents an efficacy of between 26 and 50%, a score of 2 represents an efficacy of between 51 and 75% and a score of 3 represents an efficacy of between 76 and 100%.

[3] = test system: Rhizophidium planktonicum; experiment: Arthrospira sp. outdoor pond, qPCR monitoring and treatment; settings: 1 ppm
Experimental: A 200,000 liter outdoor pond located in Las Cruces, N. Mex. is inoculated with Arthrospira sp. at an initial DW of 0.2 g/l. Growth of the microalgae is monitored daily by measuring the ash free dry weight of the culture. qPCR monitoring is performed daily to detect the presence of the chytrid fungus Rhizophidium planktonicum or close relatives using primers […] (SEQ ID NO. 40) and […] (SEQ ID NO. 41).
as §1, with “R. planktonicum” for “P. sedebokerensis”

Question: With `N#Cc1c(Cl)c(Cl)c(Cl)c(C#N)c1Cl` [chlorothalonil, 2,4,5,6-tetrachlorobenzene-1,3-dicarbonitrile] as the compound, how does the “Ct observed for P. sedebokerensis after treatment” value [1] read?
Answer: > 30

Question: What about the “Scenedesmus dimorphus Efficacy confirmation” value ([2]; @ 2 ppm, second trial) of the same compound?
Answer: 75.7% @ 2 ppm

Question: And the activity at 2 ppm ([2]; Tetradesmus dimorphus, read-out: Scenedesmus dimorphus efficacy)?
Answer: 84.5%

Question: What about the Rating ([2]; rating scale of 0 to 3 by percent efficacy) of the same compound?
Answer: 3 (a score of 3 represents an efficacy of between 76 and 100%)

Question: And the “Ct observed for R. planktonicum after treatment” value [3]?
Answer: > 30
